Tested on: GFRα3/RET-expressing reporter cell line
Assay: Reporter-gene luciferase activity assay, dose-response (FIG. 5)
Type: cell-based, human
Details: GFRα3/RET cells; 1-50 μM, 24 h
Excerpt: Full-length flag-tagged rat Gfrα1 cDNA (Leppänen et al., 2004) subcloned into in pcDNA3 (Invitrogen). Full-length human GFRα1 cDNA (Sidorova et al., unpublished) subcloned in pcDNA6 (Invitrogen). Full-length human GFRα3 cDNA (Wang et al., 2006). Full-length human RET (long isoform) (Runeberg-Roos et al., 2007) in pCR3.1 (Invitrogen). The MAPK activation detection system (Baloh et al., 2000) and PathDetect Elk-1 (Stratagene) both of which include two plasmids. First one constitutively expresses MAPK pathway specific fusion transactivator, that consists of activation domain of Elk-1 and DNA-binding domain of the yeast GAL4 protein (Gal4-Elk1). The other plasmid, Gal4-Luc, carries luciferase gene under the control of a synthetic promoter containing the yeast GAL4 binding sequences.
Cells were plated on 96-well plates (or 384-well) in cell density 20 000 (or 5 000 for 384-well format) cells per well in DMEM, 10% FBS, 100 μg/ml Normocin, 2 μg/ml puromycin, 500 μg/ml of G418, 15 mM HEPES, pH 7.2 one day before assay. The following day, the compounds were added to a final concentration of 1-50 μM. Structures of the compounds are shown in the description of FIG. 5, above. Cells were allowed to produce luciferase for 24 h, then lysed in 20 μl of 1×Cell culture lysis reagent (Promega) and freeze-thawed once to ensure complete lysis. Then 5 μl of the lysate was mixed (on ice) with 20 μl of luciferase assay substrate (Promega) in a well of black Isoplate (PerkinElmer). Luminescence was counted on MicroBeta 2 counter (PerkinElmer) twice. Data are presented as fold induction, where the corresponding concentration of DMSO was used as a reference.

Row | Structure (SMILES) | induction of luciferase expression
1 | COc1ccc(S(=O)(=O)N2CCc3ccccc3C2)cc1N1CCN(C(=O)c2cc(F)ccc2C(F)(F)F)CC1 [BT16] | in a dose-dependent manner induce luciferase expression
2 | CCN(CC)S(=O)(=O)c1ccc(OC)c(N2CCN(C(=O)c3cc(F)ccc3C(F)(F)F)CC2)c1 [BT13] | in a dose-dependent manner induce luciferase expression
